Test results from PMC9736281, “Flavonoid Constituents and Alpha-Glucosidase Inhibition of Solanum stramonifolium Jacq. Inflorescence with In Vitro and In Silico Studies” (Molecules, 2022).
≈ marks a conversion by molar mass, not a printed value. Read-outs that look alike come from different tables or passages of the source. Blank lines part the entries; values can stand above or below the compound they belong to.

How the values were obtained:
[1] = system: alpha-glucosidase enzyme; assay: Alpha-glucosidase inhibitory activity, enzymatic assay with pNPG; assay type: biochemical, Saccharomyces cerevisiae; conditions: for IC50: purchased standards, DMSO co-solvent not more than 5%
Procedure: All extracts and isolated compounds were examined for their alpha-glucosidase inhibitory activity according to Dej-adisai and Pitakput, 2015 [23]. Briefly, 0.01 M phosphate buffer (50 μL), samples or standard solution (50 μL), and alpha-glucosidase enzyme solution (50 μL) were added to the well plate. The mixture solution was incubated at 37 °C for 2 min. Next, para-nitrophenyl-α-D-glucopyranoside solution (50 μL) was added. The enzymatic inhibition was evaluated from the yellow final product, p-nitrophenol (pNP). The color of the reaction was detected by visible light at 405 nm of SPECTROstar Nano spectrophotometer (BMG Labtech, Ortenberg, Germany). The product absorption was converted to velocity (V) by using Equation (1). Then, the velocity was used to calculated the percentage of inhibition by Equation (2). Furthermore, the ability of sample was performed by IC50 value, which was generated from the calibration curve of percentages of inhibition at five different sample concentrations. Velocity = ∆ Absorbance at 405 nm/∆ Time(1) % Inhibition = [(Vcontrol − Vsample)/Vcontrol] × 100(2)

[2] = system: alpha-glucosidase enzyme; assay: Enzyme kinetic study (Lineweaver-Burk plot, secondary plot); assay type: biochemical, Saccharomyces cerevisieae
Procedure: To determine the mode of inhibition, the enzyme kinetic procedure was performed as described by Sakulkeo et al.. The double reciprocal Lineweaver–Burk plot was constructed and used for the mode of action determination. The inhibition constant (Ki) was conducted from the secondary plot. Briefly, the 5 concentrations of substrate pNPG (2.5–0.125 mM), the enzyme from Saccharomyces cerevisieae (EC 3.2.1.20) at 1 unit/mL, and 3 concentrations of sample were tested in triplicate.

[3] = system: alpha-glucosidase enzyme; conditions: cited from earlier work

Compound: C[C@H]1O[C@H](O[C@H]2[C@H](O)[C@@H](O)[C@@H](O[C@H]3[C@H](O)[C@@H](O)C(O)O[C@@H]3CO)O[C@@H]2CO)[C@H](O)[C@@H](O)[C@@H]1N[C@H]1C=C(CO)[C@@H](O)[C@H](O)[C@H]1O (stereo partly drawn) [Acarbose, acarbose, reference compound]
% Inhibition at 200 μg/mL ([1]; alpha-glucosidase): 45.27 ± 4.5%
% Inhibition at 400 μg/mL ([1]; alpha-glucosidase): 60.78 ± 3.61%
% Inhibition at 2 mg/mL ([1]; alpha-glucosidase, sample at 2 mg/mL): 76.44 ± 3.06%
Inhibition Type [2]: Competitive

% Inhibition at 400 μg/mL ([1]; alpha-glucosidase): 12.78 ± 4.89%
Compound: COc1cc(O)c2c(=O)c(OC)c(-c3cc(O)c(OC)c(OC)c3)oc2c1 [Compound 1, myricetin 3, 4′, 5′, 7-tetramethyl ether]

% Inhibition at 400 μg/mL ([1]; alpha-glucosidase): 8.51 ± 3.79%
Compound: COc1cc(O)c2c(=O)c(OC)c(-c3cc(OC)c(OC)c(OC)c3)oc2c1 [Compound 2, 5-hydroxy-3,7,3′,4′,5′-pentamethoxyflavone]

Compound: O=c1c(O)c(-c2ccc(O)cc2)oc2cc(O)cc(O)c12 [Compound 3, kaempferol]
% Inhibition at 400 μg/mL ([1]; alpha-glucosidase): 13.01 ± 2.69%
IC50 [1]: 585.63 µg/mL (≈ 2050 µM)
Inhibition Type ([2]; listed as Kaempferol): Mixed
Inhibition Type ([2]; listed as kaempferol): mixed-type
Inhibition Type ([3]; ref [13],[14]): mixed-type
Inhibition Type ([3]; ref [15]): non-competitive

Compound: O=c1c(O)c(-c2ccc(O)cc2)oc2cc(O[C@@H]3O[C@H](CO)[C@@H](O)[C@H](O)[C@H]3O)cc(O)c12 [Compound 4, kaempferol 7-O-β-glucopyranoside]
% Inhibition at 400 μg/mL ([1]; alpha-glucosidase): 7.68 ± 0.33%

% Inhibition at 200 μg/mL ([1]; alpha-glucosidase): 0.84 ± 0.21%
Compound: COc1cc(O)c2c(=O)c(OC)c(-c3cc(OC)c(OC)c(OC4OC(CO)C(O)C(O)C4O)c3)oc2c1 (stereo not drawn) [Compound 5, 5-hydroxy 3-7-4′-5′-tetramethoxyflavone-3′-O-glucopyranoside]

Compound: O=c1c(OC2O[C@H](CO)[C@@H](O)[C@H](O)[C@H]2O)c(-c2ccc(O)cc2)oc2cc(O)cc(O)c12 (stereo partly drawn) [Compound 6b, kaempferol 3-O-glucopyranoside]
IC50 [1]: >600 µg/mL
Inhibition Type ([2]; listed as Astragalin): Mixed
Inhibition Type ([2]; listed as astragalin): mixed-type
Inhibition Type ([3]; ref [16]): non-competitive
